# Laboratory results from patent EP0696280B1, “SUBSTITUTED PYRROLIDIN-3-YL-ALKYL-PIPERIDINES USEFUL AS TACHYKININ ANTAGONISTS” (MERRELL PHARMACEUTICALS INC., priority 1993, dated 1994).
# Where a name gives a salt, the structure may show the parent alone.
# Assays:
# [1] = tested on: capsaicin-induced respiratory effects; assay: Antagonism of capsaicin aerosol induced respiratory effects in conscious guinea pigs (whole body plethysmography); format: in vivo, guinea pig; conditions: for DYSPNEA ONSET / MAXIMUM PRESSURE INCREASE (mmH2O) / SRE NUMBER*: mean and SEM; for SRE NUMBER*: number of coughs/gasps during 19 min exposure
# Procedure: (§1) In vivo experiments were performed using male Duncan Hartley guinea pigs (250-350g). Changes in conscious breathing patterns were monitored in four animals simultaneously using modified whole body plethysmography consisting of four small plexiglass boxes each connected to a reference box via Validyne DP 45-16 differential pressure transducers. The 4 boxes were equipped with an air supply line (also used for aerosol delivery) and an exhaust air line. Supply and exhaust lines were of the same length and narrow bore and arose from a common supply chamber and vented to a common exhaust chamber. This system was used to ensure that fluctuations in supply air and atmospheric pressure would remain in phase and be eliminated from the net signal by the differential pressure transducers. The analog pressure signals were digitalized via a Data Translation DT2821 A to D board. Data were collected at a rate of 100 samples/second/animal. Each cycle of pressure change was analyzed using the following parameters: rising and falling slope determined between minimum and maximum pressures, the ratio of rising over falling slope, and the magnitude of the change between initial trough pressure and peak cycle pressure. Using these values (and observing the animals) the pressure cycles were characterized into normal breaths, forced exhalations (apparent by abdominal heaving), significant respiratory events (SREs; usually coughs, less often sneezes or gasps which were characterized by transient, extremely large pressure increases which were distinguishable from noise) and movement/noise with a PCAT 286 running a System V UNIX operating system. Dyspnea was defined as a significant, sustained increase in plethysmograph pressure which was associated with an observable shift to labored breathing in the animal.
# (§2) During the course of a typical experiment in which airway responsiveness to various bronchoconstricting agents was examined, aerosols were delivered for 19 min (0.33 ml/min) using a DeVilbiss Ultraneb 99 ultrasonic nebulizer and animals monitored during this time. Prior to nebulization, 1 min of resting breathing was collected to establish a baseline pressure. […] The vehicle for nebulization of all bronchoconstrictive agents was phosphate buffered saline (pH 7.4) which elicited no respiratory effects itself. Putative tachykinin antagonists were administered either (i.v.) 20 min prior to onset of aerosol exposure or orally 1 hour prior to onset (to guinea pigs after an overnight fast).
# Capsaicin aerosol is known to promote release of the tachykinins SP and NKA from sensory nerves in the airways of guinea pigs which may then act upon NK1 and NK2 receptors, respectively to elicit respiratory effects. […]
# (§3) Values are mean and SEM of data derived from number of animals indicated in parenthesis. Putative tachykinin antagonists were administered intravenously 20 min prior to initiation of capsaicin aerosol (0.001%). *SRE number indicates the number of coughs/gasps which occurred during the 19 min capsaicin exposure period.
# as §3, with “by oral gavage 1 hr” for “intravenously 20 min”
# [2] = tested on: NKA-induced respiratory effects; assay: Antagonism of NKA aerosol induced respiratory effects in conscious guinea pigs (whole body plethysmography); format: in vivo, guinea pig; conditions: 20 min prior to NKA aerosol (0.05%); for DYSPNEA ONSET: mean and SEM
# Procedure: as §1, §2
# Table 6 illustrates the effects of the compounds of Example 3; Example 20A; and Example 5A on respiratory effects induced by NKA aerosol. […] These effects were dose dependent i.e. the higher the dose of compound, the greater attenuation of NKA-mediated effects. […]
# Compounds were administered 20 min prior to initiation of NKA aerosol (0.05%). Values for each treatment represent the mean and SEM of data from 5-37 animals per dose.
# [3] = tested on: SP-induced plasma protein extravasation; assay: Antagonism of SP-induced plasma protein extravasation in guinea pig trachea (Evans Blue dye); format: in vivo; conditions: Figure 2; i.v.; result in words
# Procedure: SP-induced protein leakage through postcapillary venules was assessed by measuring Evans Blue dye accumulation in guinea pig trachea. Animals were anesthetized with pentobarbital then injected with Evans Blue dye (20 mg/kg, i.v., prepared in 0.9% NaCl solution). One minute after dye administration, the antagonist was administered (i.v.) followed by SP (0.3 nmole/kg, i.v.) and, after 5 min, excess dye removed from the circulation by transcardiac perfusion with 50 ml 0.9% NaCl solution. The trachea and primary bronchi were removed, blotted dry and weighed. Dye quantitation was performed spectrophotometrically (620 nm) after extracting tissues in formamide for 24 hr at 50°C. Values were subtracted from background (dye only, no agonist). ED50 (dose of compound which inhibits SP-induced plasma protein extravasation by 50%) was calculated from linear regression analysis.
# Values are mean (95% confidence limits). Compounds were injected intravenously 2 min prior to SP administration. ED50 values are based on at least 3 doses; at least 4 animals were used per dose.
# [4] = 10 mg/kg intravenously 20 min prior to capsaicin aerosol (0.001%)
# [5] = 25 mg/kg by oral gavage 1 hr prior to capsaicin aerosol (0.001%)
# [6] = 50 mg/kg by oral gavage 1 hr prior to capsaicin aerosol (0.001%)
# [7] = 100 mg/kg by oral gavage 1 hr prior to capsaicin aerosol (0.001%)
smiles,measurement,setting,value
"COc1cc(C(=O)N2CCC(CCN3CCC(C(N)=O)(c4ccccc4)CC3)(c3ccc(Cl)c(Cl)c3)C2)cc(OC)c1OC (racemic) [Example 3A, 1-[2-[3-(3,4-dichloro-phenyl-3-yl)-1-(3,4,5-trimethoxy-benzoyl)-pyrrolidin-3-yl]-ethyl] -4-phenyl-piperidine-4-carboxylic acid amide hydrochloride]",DYSPNEA INCIDENCE,[1]; [4],89% (7/8)
same,DYSPNEA ONSET,[1]; [4],480 ± 80 s
same,MAXIMUM PRESSURE INCREASE (mmH2O),[1]; [4],0.83 ± 0.18 mmH2O
same,SRE NUMBER*,[1]; [4],8.50 ± 1.9
same,DYSPNEA INCIDENCE,[1]; [5],80% (8/10)
same,DYSPNEA ONSET,[1]; [5],424 ± 120 s
same,MAXIMUM PRESSURE INCREASE (mmH2O),[1]; [5],0.7 ± 0.2 mmH2O
same,SRE NUMBER*,[1]; [5],4.6 ± 1.0
same,DYSPNEA INCIDENCE,[1]; [6],70% (7/10)
same,DYSPNEA ONSET,[1]; [6],434 ± 152 s
same,MAXIMUM PRESSURE INCREASE (mmH2O),[1]; [6],0.4 ± 0.1 mmH2O
same,SRE NUMBER*,[1]; [6],2.8 ± 0.8
same,DYSPNEA INCIDENCE,[1]; [7],50% (5/10)
same,DYSPNEA ONSET,[1]; [7],360 ± 120 s
same,MAXIMUM PRESSURE INCREASE (mmH2O),[1]; [7],0.4 ± 0.1 mmH2O
same,SRE NUMBER*,[1]; [7],2.1 ± 0.5
"COc1cc(C(=O)N2CCC(CCN3CCC(C(N)=O)(c4ccccc4)CC3)(c3ccc(Cl)c(Cl)c3)C2)cc(OC)c1OC (stereo not shown) [Example 3, 1-[2-[3-(3,4-dichloro-phenyl)-1-(3,4,5-trimethoxy-benzoyl)-pyrrolidin-3-yl]-ethyl]-4-phenyl-piperidine-4-carboxylic acid amide]",DYSPNEA INCIDENCE,[2]; 5 mg/kg,86% (6/7)
same,DYSPNEA ONSET,[2]; 5 mg/kg,394 ± 32 s
same,DYSPNEA INCIDENCE,[2]; 10 mg/kg,60% (6/10)
same,DYSPNEA ONSET,[2]; 10 mg/kg,801 ± 104 s
same,antagonism of SP-induced plasma protein extravasation in guinea pig trachea,[3],dose related antagonism
"COc1cccc(OC)c1C(=O)N1CCC(CCN2CCC(C(N)=O)(c3ccccc3)CC2)(c2ccc(Cl)c(Cl)c2)C1 (racemic) [Example 5A, 1-[2-[3-(3,4-dichloro-phenyl-3-yl)-1-(2,6-dimethoxy-benzoyl)-pyrrolidin-3-yl]-ethyl]-4-phenyl-piperidine-4-carboxylic acid amide hydrochloride]",DYSPNEA INCIDENCE,[2]; 5 mg/kg,60% (3/5)
same,DYSPNEA ONSET,[2]; 5 mg/kg,654 ± 37 s
same,DYSPNEA INCIDENCE,[2]; 10 mg/kg,54% (7/13)
same,DYSPNEA ONSET,[2]; 10 mg/kg,608 ± 65 s
